Experimental data published in patent US7615536B2, “1,4-benzothiazepine 1,1-dioxide derivative, process for its preparation, medicaments comprising this compound, and use thereof as a hypolipidaemic” (Sanofi-Aventis Deutschland GmbH, priority 2005, dated 2009).

Biological target: T1, recombinantly expressed human sodium-dependent ileal bile acid transporter (IBAT, ASBT, SLC10A2) (Homo sapiens, UniProt Q12908)
T1 construct: Bases 599 to 1645 correspond to the complete coding region of the human IBAT; expressed in transfected cells
T1 sequence (Q12908 1-348): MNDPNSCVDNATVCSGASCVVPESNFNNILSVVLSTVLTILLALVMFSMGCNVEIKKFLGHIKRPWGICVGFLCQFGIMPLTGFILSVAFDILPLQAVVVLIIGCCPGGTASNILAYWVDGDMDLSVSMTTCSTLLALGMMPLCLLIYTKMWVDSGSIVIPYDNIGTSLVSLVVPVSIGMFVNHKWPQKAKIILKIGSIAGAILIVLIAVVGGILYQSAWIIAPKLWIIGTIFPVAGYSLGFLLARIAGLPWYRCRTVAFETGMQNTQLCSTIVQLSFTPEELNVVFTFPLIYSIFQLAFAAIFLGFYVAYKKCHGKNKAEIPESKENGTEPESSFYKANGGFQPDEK
Test: in vitro IBAT inhibition test ([3H]-taurocholic acid uptake into CHO-hIBAT cells)
Format: cell-based
Procedure: Biological testing of the compound A according to the invention was carried out using the in vitro IBAT inhibition test. This test examines the effect of the compound according to the invention on the transport activity of the recombinantly expressed human sodium-dependent ileal bile acid transporter (IBAT=ileal Na^+/bile acid contransporter, ASBT=apical sodium-dependent bile acid transporter, SLC10A2=solute carrier family 10, member 2).
Preparation for and practice of the in vitro IBAT inhibition test:
1. Cloning of an Expression Vector for Human IBAT […]
CHO-hIBAT cells were sown at a concentration of 40 000 cells per well in cell culture medium in poly-D-lysine-coated 96-well plates and cultivated for 24h. […] Finally, 100 μL of scintillation fluid were added to each well, and the radioactivity taken up into the cells was determined in a MicroBeta scintillation microplate reader from Wallac.
The half-maximal inhibitory effect of the test compound (IC50 value, inhibitory concentration 50) was determined as follows:
• 1. […] This is the value measured in the absence of substance, measured in sodium-comprising transport assay buffer. • 2. […] This is the value measured in the absence of substance, measured in sodium-free transport assay buffer. • 3. […]

CCCCC1(CCCC)CS(=O)(=O)c2ccc(N(C)C)cc2[C@@H](c2cccc(NC(=O)N[C@@H]3O[C@H](CO)[C@@H](O)[C@H](O)[C@H]3O)c2)N1 [Example A]
IC50 (CHO-hIBAT cells, taurocholic acid 10 μM, 60 min at room temperature): 57 nM
activity higher compared to comparative example from EP 1 169 313 (relative to compound 11a, from the IC50 (human IBAT) values): 560%
